Patent publication US20250368649A1, “TETRAHYDROPYRIDOPYRIMIDINE PAN-KRAS INHIBITORS” (Mirati Therapeutics, Inc., priority 2022, published 2025)

Tests used:
[1] = system: A549 cells; experiment: Inhibition of KRas-mediated phosphorylation of ERK (Cisbio HTRF pERK), A549 cells; assay type: cell-based; settings: Homo sapiens, A549, 3 h, 3 hr compound incubation, Cisbio pERK HTRF
[2] = molecular target: KRas G12V (Homo sapiens, UniProt P01116, G12V); experiment: biochemical; settings: Binding to KRas (IC50 nM) G12V, TR-FRET displacement, KRas G12V
[3] = molecular target: KRas G12S (Homo sapiens, UniProt P01116, G12S); assay type: binding; settings: single point, 10 nM compound, read-out: Binding to KRas (% inhibition at 10 nM) G12S
[4] = system: ASPC1 cells; experiment: Inhibition of KRas-mediated phosphorylation of ERK (Cisbio HTRF pERK), ASPC1 cells; assay type: cell-based; settings: Homo sapiens, ASPC1, 3 h, AsPC-1 cells; 3 hr compound incubation; Cisbio pERK HTRF
[5] = molecular target: KRas WT (Homo sapiens, UniProt P01116); experiment: KRas binding assay (TR-FRET displacement), KRas WT; settings: single point, 10 nM compound
[6] = molecular target: KRas Q61H (Homo sapiens, UniProt P01116, Q61H); experiment: KRas binding assay (TR-FRET displacement), KRas Q61H; settings: single point, 10 nM compound
[7] = system: MKN1 cells; experiment: Inhibition of KRas-mediated phosphorylation of ERK (Cisbio HTRF pERK), MKN1 cells; assay type: cell-based; settings: Homo sapiens, MKN-1, 3 hour compound incubation, Cisbio pERK HTRF
Summary of the method: (§1)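 Phospho-ERK signal measured by HTRF after cells had been plated at 6,000/well in RPMI supplemented with 10% FBS on day 1.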

[8] = system: H727 cells; experiment: Inhibition of KRas-mediated phosphorylation of ERK (Cisbio HTRF pERK), H727 cells; assay type: cell-based; settings: Homo sapiens, NCI-H727, 3 h, 3 hr compound incubation, Cisbio pERK HTRF
[9] = system: HCT116 cells; experiment: Inhibition of KRas-mediated phosphorylation of ERK (Cisbio HTRF pERK), HCT116 cells; assay type: cell-based; settings: Homo sapiens, HCT-116, 3 h, 3 hr compound incubation, Cisbio pERK HTRF
[10] = system: H460 cells; experiment: Inhibition of KRas-mediated phosphorylation of ERK (Cisbio HTRF pERK), H460 cells; assay type: cell-based; settings: Homo sapiens, NCI-H460, 3 h, 3 hr compound incubation, Cisbio pERK HTRF
[11] = system: PSN1 cells; experiment: Inhibition of KRas-mediated phosphorylation of ERK (Cisbio HTRF pERK), PSN1 cells; assay type: cell-based; settings: Homo sapiens, PSN1, 3 h, 3 hour compound incubation, Cisbio pERK HTRF
Summary of the method: as §1

[12] = molecular target: KRas G12R (Homo sapiens, UniProt P01116, G12R); experiment: biochemical; settings: Binding to KRas (IC50 nM) G12R, TR-FRET displacement, KRas G12R
[13] = molecular target: KRas G12A (Homo sapiens, UniProt P01116, G12A); assay type: binding; settings: single point, 10 nM compound, read-out: Binding to KRas (% inhibition at 10 nM) G12A
[14] = molecular target: KRas G12D (Homo sapiens, UniProt P01116, G12D); experiment: biochemical; settings: Binding to KRas (IC50 nM) G12D, TR-FRET displacement, KRas G12D
[15] = molecular target: KRas G13D (Homo sapiens, UniProt P01116, G13D); assay type: binding; settings: single point, 10 nM compound, read-out: Binding to KRas (% inhibition at 10 nM) G13D
[16] = molecular target: KRas G12C (Homo sapiens, UniProt P01116, G12C); assay type: binding; settings: single point, 10 nM compound, read-out: Binding to KRas (% inhibition at 10 nM) G12C
Sequence of KRas G12C (P01116 1-169 isoform P01116-2 G12C): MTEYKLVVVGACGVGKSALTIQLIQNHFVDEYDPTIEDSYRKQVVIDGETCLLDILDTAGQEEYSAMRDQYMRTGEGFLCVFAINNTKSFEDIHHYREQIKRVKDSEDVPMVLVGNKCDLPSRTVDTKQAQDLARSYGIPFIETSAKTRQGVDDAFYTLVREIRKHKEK

Sequence of KRas G12R (P01116 1-169 isoform P01116-2 G12R): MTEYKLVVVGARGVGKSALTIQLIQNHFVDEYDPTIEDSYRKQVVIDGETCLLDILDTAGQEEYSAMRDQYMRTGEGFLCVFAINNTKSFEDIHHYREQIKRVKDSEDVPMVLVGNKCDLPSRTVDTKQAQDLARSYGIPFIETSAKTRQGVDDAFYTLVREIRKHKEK
Sequence of KRas G13D (P01116 1-169 isoform P01116-2 G13D): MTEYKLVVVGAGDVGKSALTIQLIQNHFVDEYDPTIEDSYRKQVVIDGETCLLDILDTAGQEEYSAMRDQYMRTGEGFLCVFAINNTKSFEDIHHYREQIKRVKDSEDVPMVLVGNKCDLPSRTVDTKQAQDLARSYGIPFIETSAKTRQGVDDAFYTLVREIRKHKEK
Sequence of KRas Q61H (P01116 1-169 isoform P01116-2 Q61H): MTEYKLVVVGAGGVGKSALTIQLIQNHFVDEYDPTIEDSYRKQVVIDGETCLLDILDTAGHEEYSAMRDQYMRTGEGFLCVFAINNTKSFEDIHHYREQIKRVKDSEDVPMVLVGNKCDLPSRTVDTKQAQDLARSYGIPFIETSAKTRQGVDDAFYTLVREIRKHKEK
Sequence of KRas G12A (P01116 1-169 isoform P01116-2 G12A): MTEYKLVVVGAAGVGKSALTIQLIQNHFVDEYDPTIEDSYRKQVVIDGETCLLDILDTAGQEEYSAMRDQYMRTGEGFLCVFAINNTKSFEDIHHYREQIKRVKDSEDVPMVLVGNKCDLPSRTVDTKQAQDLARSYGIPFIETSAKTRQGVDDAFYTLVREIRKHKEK
Sequence of KRas G12S (P01116 1-169 isoform P01116-2 G12S): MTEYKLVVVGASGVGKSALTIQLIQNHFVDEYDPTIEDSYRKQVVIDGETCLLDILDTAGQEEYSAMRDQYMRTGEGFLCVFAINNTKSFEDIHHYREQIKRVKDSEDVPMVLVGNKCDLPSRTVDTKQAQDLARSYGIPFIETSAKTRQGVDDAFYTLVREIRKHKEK
Sequence of KRas G12D (P01116 1-169 isoform P01116-2 G12D): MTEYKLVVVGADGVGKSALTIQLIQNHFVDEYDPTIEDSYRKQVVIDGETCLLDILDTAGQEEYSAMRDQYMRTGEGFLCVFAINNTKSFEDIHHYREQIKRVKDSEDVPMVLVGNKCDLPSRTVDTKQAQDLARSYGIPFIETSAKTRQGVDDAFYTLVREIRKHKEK
Sequence of KRas G12V (P01116 1-169 isoform P01116-2 G12V): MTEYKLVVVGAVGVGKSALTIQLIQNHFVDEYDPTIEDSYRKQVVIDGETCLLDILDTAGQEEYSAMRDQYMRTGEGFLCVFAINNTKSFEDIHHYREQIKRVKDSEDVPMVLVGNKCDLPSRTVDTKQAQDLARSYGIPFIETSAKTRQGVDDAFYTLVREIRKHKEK
Sequence of KRas WT (P01116 1-169 isoform P01116-2): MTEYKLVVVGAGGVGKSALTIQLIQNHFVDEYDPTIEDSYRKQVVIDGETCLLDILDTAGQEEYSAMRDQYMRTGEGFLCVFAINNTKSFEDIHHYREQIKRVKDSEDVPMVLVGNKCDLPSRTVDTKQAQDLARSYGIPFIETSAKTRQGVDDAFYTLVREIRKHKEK

IC50 [1] | IC50 [2] | inhibition at 0.01 µM [3] | IC50 [4] | inhibition at 0.01 µM [5] | inhibition at 0.01 µM [6] | IC50 [7] | IC50 [8] | IC50 [9] | IC50 [10] | IC50 [11] | IC50 [12] | inhibition at 0.01 µM [13] | IC50 [14] | inhibition at 0.01 µM [15] | inhibition at 0.01 µM [16] | SMILES
363 nM | < 2 nM | 100% | 90 nM | 98% | 97% | 21.7 nM | 166 nM | 1040 nM | 594 nM | 5510 nM | < 2 nM | 98% | < 2 nM | 97% | 99% | CCc1c(F)ccc2cc(O)cc(N3CCc4c(nc(OC[C@@]56CCCN5C[C@H](F)C6)nc4N4CCCn5nc6c(c5C4)CCNC6=O)C3)c12 [Example 408, 2-(7-(8-ethyl-7-fluoro-3-hydroxynaphthalen-1-yl)-2-(((2R,7aS)-2-fluorohexahydro-1H-pyrrolizin-7a-yl)methoxy)-5,6,7,8-tetrahydropyrido[3,4-d]pyrimidin-4-yl)-2,3,4,5,10,11-hexahydro-1H-pyrido[3′,4′:3,4]pyrazolo[1,5-a][1,4]diazepin-8(9H)-one]
22 nM | < 2 nM | 100% | 8 nM | 100% | 100% | 3.1 nM | 7 nM | 212 nM | 57 nM | 1220 nM | < 2 nM | 100% | < 2 nM | 100% | 100% | CCc1c(F)ccc2cc(O)cc(N3CCc4c(nc(OC[C@@]56CCCN5C[C@H](F)C6)nc4N4CCCn5nc6c(c5C4)CCCN(C)C6=O)C3)c12 [Example 409, 2-(7-(8-ethyl-7-fluoro-3-hydroxynaphthalen-1-yl)-2-(((2R,7aS)-2-fluorohexahydro-1H-pyrrolizin-7a-yl)methoxy)-5,6,7,8-tetrahydropyrido[3,4-d]pyrimidin-4-yl)-9-methyl-2,3,4,5,9,10,11,12-octahydroazepino[3′,4′:3,4]pyrazolo[1,5-a][1,4]diazepin-8(1H)-one]
111 nM | < 2 nM | 88% | 31 nM | 73% | 71% | 30.1 nM | 54 nM | 423 nM | 260 nM | 6540 nM | < 2 nM | 74% | < 2 nM | 75% | 90% | CCc1c(F)ccc2cc(O)cc(N3CCc4c(nc(OC[C@@]56CCCN5C[C@H](F)C6)nc4N4CCCn5nc(C(=O)OC)cc5C4)C3)c12 [Example 411, methyl 5-(7-(8-ethyl-7-fluoro-3-hydroxynaphthalen-1-yl)-2-(((2R,7aS)-2-fluorohexahydro-1H-pyrrolizin-7a-yl)methoxy)-5,6,7,8-tetrahydropyrido[3,4-d]pyrimidin-4-yl)-5,6,7,8-tetrahydro-4H-pyrazolo[1,5-a][1,4]diazepine-2-carboxylate]
213 nM | < 2 nM | 76% | 96 nM | 62% | 61% | 1.7 nM | 72 nM | 614 nM | 207 nM | > 10000 nM | < 2 nM | 62% | < 2 nM | 60% | 83% | CCNc1cc2n(n1)CCCN(c1nc(OC[C@@]34CCCN3C[C@H](F)C4)nc3c1CCN(c1cc(O)cc4ccc(F)c(CC)c14)C3)C2 [Example 412, 5-ethyl-4-(4-(2-(ethylamino)-7,8-dihydro-4H-pyrazolo[1,5-a][1,4]diazepin-5(6H)-yl)-2-(((2R,7aS)-2-fluorohexahydro-1H-pyrrolizin-7a-yl)methoxy)-5,6-dihydropyrido[3,4-d]pyrimidin-7(8H)-yl)-6-fluoronaphthalen-2-ol]
134 nM | < 2 nM | 100% | 26 nM | 99% | 100% | 16 nM | 28 nM | 504 nM | 171 nM | 1980 nM | < 2 nM | 100% | < 2 nM | 99% | 100% | CCc1c(F)ccc2cc(O)cc(N3CCc4c(nc(OC[C@@]56CCCN5C[C@H](F)C6)nc4N4CCCn5nc6c(c5C4)CCCNC6=O)C3)c12 [Example 415, 2-(7-(8-ethyl-7-fluoro-3-hydroxynaphthalen-1-yl)-2-(((2R,7aS)-2-fluorohexahydro-1H-pyrrolizin-7a-yl)methoxy)-5,6,7,8-tetrahydropyrido[3,4-d]pyrimidin-4-yl)-2,3,4,5,9,10,11,12-octahydroazepino[3′,4′:3,4]pyrazolo[1,5-a][1,4]diazepin-8(1H)-one]
9 nM | < 2 nM | 72% | 40 nM | 62% | 90% | 6 nM | 37 nM | 38 nM | 20 nM | 194 nM | < 2 nM | 54% | < 2 nM | 82% | 83% | CCc1c(F)ccc2cc(O)cc(N3CCc4c(nc(OC[C@@]56CCCN5C[C@H](F)C6)nc4N4CCCC5(CC(=O)NC5=O)C4)C3)c12 (stereo partly drawn) [Example 419, 7-(7-(8-ethyl-7-fluoro-3-hydroxynaphthalen-1-yl)-2-(((2R,7aS)-2-fluorohexahydro-1H-pyrrolizin-7a-yl)methoxy)-5,6,7,8-tetrahydropyrido[3,4-d]pyrimidin-4-yl)-2,7-diazaspiro[4.5]decane-1,3-dione]
24 nM | < 2 nM | 97% | 66 nM | 95% | 97% | 5.8 nM | 38 nM | 143 nM | 38 nM | 2740 nM | < 2 nM | 96% | < 2 nM | 95% | 98% | CCc1c(F)ccc2cc(O)cc(N3CCc4c(nc(OC[C@@]56CCCN5C[C@H](F)C6)nc4N4CCCOCC4)C3)c12 [Example 420, 5-ethyl-6-fluoro-4-(2-(((2R,7aS)-2-fluorohexahydro-1H-pyrrolizin-7a-yl)methoxy)-4-(1,4-oxazepan-4-yl)-5,6-dihydropyrido[3,4-d]pyrimidin-7(8H)-yl)naphthalen-2-ol]
147 nM | < 2 nM | 60% | 163 nM | 58% | 62% | 189 nM | 78 nM | 616 nM | 169 nM | > 10000 nM | 3 nM | 55% | 2 nM | 55% | 72% | CCc1c(F)ccc2cc(O)cc(N3CCc4c(nc(OC[C@@]56CCCN5C[C@H](F)C6)nc4N4Cc5cn(C(=O)N(C)C)nc5CC(C)C4)C3)c12 (stereo partly drawn) [Example 422, 5-(7-(8-ethyl-7-fluoro-3-hydroxynaphthalen-1-yl)-2-(((2R,7aS)-2-fluorohexahydro-1H-pyrrolizin-7a-yl)methoxy)-5,6,7,8-tetrahydropyrido[3,4-d]pyrimidin-4-yl)-N,N,7-trimethyl-5,6,7,8-tetrahydropyrazolo[4,3-c]azepine-2(4H)-carboxamide]
